Measured values: article PMC3435245, “D-Alanylation of Lipoteichoic Acids Confers Resistance to Cationic Peptides in Group B Streptococcus by Increasing the Cell Wall Density” (PLoS Pathogens, 2012)
≈ marks a conversion by molar mass, not a printed value. Where a SMILES comes first, the peptide text is derived from it. Bridges are numbered along the chain shown (N, C = ends). [ ]: non-standard residue; d: D form. The star is where a group is joined. Heptanoyl(6-Me) = CC(C)CCCCC(=O)*; X1 = CC[C@H](C)CCCCC(=O)*; Dab = NCC[C@H](N)C(=O)O

What was measured:
GBS ΔdltA mutant = assay: MIC90 by dilution method, GBS ΔdltA; assay type: cell-based, Streptococcus agalactiae; conditions: for MIC90, ΔdltA: Todd-Hewitt broth with 100 mM HEPES, 2×10^6 CFU, 96-well polypropylene microplate, overnight 37°C, OD600 nm, average of triplicate measurements; for more active against the dltA mutant compared to the WT (fold dilution): from MICs of Table 2, statement for all natural peptides; for fold more active on the dltA mutant compared to the WT: from MICs, WT versus dltA mutant
Protocol: (§1) The MICs of each antimicrobial peptide were tested in Todd-Hewitt broth (THB) buffered with 100 mM HEPES in 96-well polypropylene microplates (Costar, Cambridge, MA) by a dilution method. Bacteria (2×10^6 CFU) were added in triplicates to wells containing increasing concentrations of the antimicrobial peptides. Plates were incubated at 37°C with shaking overnight and then read (OD600 nm) using microplate reader (Labsystems Multiskanat) for bacterial growth. The MICs90 was considered to be the peptide concentration that inhibited 90% growth.

GBS Δlgt Δlsp mutant = assay: MIC90 by dilution method, GBS Δlgt Δlsp; assay type: cell-based, Streptococcus agalactiae; conditions: Todd-Hewitt broth with 100 mM HEPES, 2×10^6 CFU, 96-well polypropylene microplate, overnight 37°C, OD600 nm; average of triplicate measurements
Protocol: as §1

GBS ΔcpsD mutant = assay: MIC90 by dilution method, GBS ΔcpsD; assay type: cell-based, Streptococcus agalactiae; conditions: Todd-Hewitt broth with 100 mM HEPES, 2×10^6 CFU, 96-well polypropylene microplate, overnight 37°C, OD600 nm; average of triplicate measurements
Protocol: as §1

GBS ΔmprF mutant = assay: MIC90 by dilution method, GBS ΔmprF; assay type: cell-based, Streptococcus agalactiae; conditions: Todd-Hewitt broth with 100 mM HEPES, 2×10^6 CFU, 96-well polypropylene microplate, overnight 37°C, OD600 nm; average of triplicate measurements
Protocol: as §1

GBS NEM316 WT strain = assay type: cell-based, Streptococcus agalactiae; conditions: Todd-Hewitt broth with 100 mM HEPES, 2×10^6 CFU, 96-well polypropylene microplate, overnight 37°C, OD600 nm; average of triplicate measurements
Protocol: as §1

GBS ΔsrtA mutant = assay: MIC90 by dilution method, GBS ΔsrtA; assay type: cell-based, Streptococcus agalactiae; conditions: Todd-Hewitt broth with 100 mM HEPES, 2×10^6 CFU, 96-well polypropylene microplate, overnight 37°C, OD600 nm; average of triplicate measurements
Protocol: as §1

[1] = RP-HPLC hydrophobicity (% AcN at elution); assay type: physicochemical; conditions: chromatographic, C4 reverse analytical column; eluted in 40 min, linear gradient of acetonitrile 30 to 70% v/v in water containing TFA (0.05% v/v)
Protocol: The procedure conducted as described previously. Briefly, peptides were synthesized using the Fmoc solid phase method on Rink amide resin ([…]). For fluorescent labeling of the N-terminus of the peptides, resin-bound peptides were treated with NBD or rhodamine dissolved in dimethyl formamide (DMF), washed thoroughly with DMF and then with methylene chloride, dried and then cleaved. […] The peptides were subjected to amino acid and mass spectrometry analysis to confirm their composition.

Compound | MIC90, ΔdltA (GBS ΔdltA mutant) | MIC90, Δlgt Δlsp (GBS Δlgt Δlsp mutant) | MIC90, ΔcpsD (GBS ΔcpsD mutant) | MIC90, ΔmprF (GBS ΔmprF mutant) | MIC90, WT (GBS NEM316 WT strain) | MIC90, ΔsrtA (GBS ΔsrtA mutant) | more active against the dltA mutant compared to the WT (fold dilution) (GBS ΔdltA mutant) | fold more active on the dltA mutant compared to the WT (GBS ΔdltA mutant) | Hydrophobicity (% AcN) [1]
CC[C@H](C)[C@H](NC(=O)[C@H](CCCCN)NC(=O)[C@H](CCC(=O)O)NC(=O)[C@H](CCCCN)NC(=O)[C@H](CO)NC(=O)[C@H](CCCCN)NC(=O)[C@H](CCCNC(=N)N)NC(=O)[C@H](Cc1ccccc1)NC(=O)[C@H](Cc1ccccc1)NC(=O)[C@H](CC(=O)O)NC(=O)CNC(=O)[C@H](CC(C)C)NC(=O)[C@@H](N)CC(C)C)C(=O)NCC(=O)N[C@@H](CCCCN)C(=O)N[C@@H](CCC(=O)O)C(=O)N[C@@H](Cc1ccccc1)C(=O)N[C@@H](CCCCN)C(=O)N[C@@H](CCCNC(=N)N)C(=O)N[C@H](C(=O)N[C@H](C(=O)N[C@@H](CCC(N)=O)C(=O)N[C@@H](CCCNC(=N)N)C(=O)N[C@H](C(=O)N[C@@H](CCCCN)C(=O)N[C@@H](CC(=O)O)C(=O)N[C@@H](Cc1ccccc1)C(=O)N[C@@H](CC(C)C)C(=O)N[C@@H](CCCNC(=N)N)C(=O)N[C@@H](CC(N)=O)C(=O)N[C@@H](CC(C)C)C(=O)N[C@H](C(=O)N1CCC[C@H]1C(=O)N[C@@H](CCCNC(=N)N)C(=O)N[C@H](C(=O)N[C@@H](CCC(=O)O)C(=O)N[C@@H](CO)C(N)=O)[C@@H](C)O)C(C)C)[C@@H](C)CC)C(C)C)[C@@H](C)CC [LL-37] | 3.6 µM (≈ 16.2 µg/mL) | >14.2 µM | >14.2 µM | >14.2 µM | >14.2 µM | >14.2 µM |  |  | 
CC[C@H](C)CCCCC(=O)N[C@@H](CCN)C(=O)N[C@H](C(=O)N[C@@H](CCN)C(=O)N[C@H]1CCNC(=O)[C@H]([C@@H](C)O)NC(=O)[C@H](CCN)NC(=O)[C@H](CCN)NC(=O)[C@H](CC(C)C)NC(=O)[C@@H](Cc2ccccc2)NC(=O)[C@H](CCN)NC1=O)[C@@H](C)O [Polymyxin B] (X1-[Dab]T[Dab][Dab][Dab][dF]L[Dab][Dab]T; lactam 4-C (inferred); N-terminus assumed) | 5.8 µM (≈ 6.98 µg/mL) | 92.4 µM (≈ 111 µg/mL) | 92.4 µM (≈ 111 µg/mL) | 92.4 µM (≈ 111 µg/mL) | 92.4 µM (≈ 111 µg/mL) | 92.4 µM (≈ 111 µg/mL) | > 2 fold dilution | 8 fold | 53.2 % AcN
CC(C)CCCCC(=O)N[C@@H](CCN)C(=O)N[C@H](C(=O)N[C@@H](CCN)C(=O)N[C@H]1CCNC(=O)[C@H]([C@@H](C)O)NC(=O)[C@H](CCN)NC(=O)[C@H](CCN)NC(=O)[C@H](CC(C)C)NC(=O)[C@@H](CC(C)C)NC(=O)[C@H](CCN)NC1=O)[C@@H](C)O ({Heptanoyl(6-Me)}-[Dab]T[Dab][Dab][Dab][dL]L[Dab][Dab]T; lactam 4-C; N-terminus assumed) | 13.9 µM (≈ 16.1 µg/mL) | >221.6 µM | >221.6 µM | >221.6 µM | >221.6 µM | >221.6 µM | > 2 fold dilution | 8 fold | 
CC(C)C[C@H](NC(=O)[C@H](CCCCN)NC(=O)[C@H](CCCCN)NC(=O)[C@H](CCCCN)NC(=O)[C@H](CC(C)C)NC(=O)[C@H](CCCCN)NC(=O)[C@H](CCCCN)NC(=O)[C@H](CC(C)C)NC(=O)[C@H](CC(C)C)NC(=O)[C@H](CCCCN)NC(=O)[C@H](CCCCN)NC(=O)[C@H](CC(C)C)NC(=O)[C@H](CCCCN)NC(=O)[C@H](CCCCN)NC(=O)[C@@H](N)CC(C)C)C(N)=O [K9L6] (H-LKKLKKLLKKLKKKL-NH2) | 25 µM (≈ 46.2 µg/mL) |  |  |  | 25 µM (≈ 46.2 µg/mL) |  |  |  | 
CH3(CH2)6CO-KKLLKLLLKLLK-NH2 [C8-K5L7, lipopeptide: K5L7 coupled to a short fatty acid] | 3 µM |  |  |  | 3 µM |  |  |  | 61.4 % AcN
